Experimental findings from ChEMBL document CHEMBL3132764, “-Aminophosphonates as novel anti-leishmanial chemotypes: synthesis, biological evaluation, and CoMFA studies” (Medchemcomm, 2014) are described below.

In general, CC50 refers to the concentration giving 50% cytotoxicity. A high value points to better tolerance by the cells. Usually half-life stands for the time in which the quantity being followed falls by half.

Data set [1] in a line: Cytotoxicity against mouse J774A1 cells after 48 hrs by MTT assay. The format is cell-based, J774.A1. A general note: Tetrazolium assays rely on reduction of a dye to a coloured formazan, in cell work by metabolically active cells.
For data set [2], the system named is Leishmania donovani. The data set is described as follows: Antileishmanial activity against promastigote stage of wild type Leishmania donovani MHOM/80/IN/Dd8 after 48 hrs by MTT assay. The class given is functional, organism-based. To be noted: MHOM/80/IN/Dd8, 48 h.
Data set [3] in a line: Selectivity index, ratio of CC50 for mouse J774A1 cells to IC50 for promastigote stage of wild type Leishmania donovani MHOM/80/IN/Dd8. The format is functional, J774.A1.
A short description of data set [4]: Half life in human. The format is ADME, organism-based. Conditions: in vivo.

Take `COP(=O)(OC)C1(Nc2ccccc2)CCCCC1`: the CC50 at 48 h in data set [1] was 7.5 µM. Further, the IC50 in data set [2] (read-out: IC50) is 16.4 µM; in data set [2] (read-out: pIC50 (converted)) it was 16.2 µM. Further, the “Ratio CC50/IC50” value in data set [3] was determined as 0.46.

For the compound `COP(=O)(OC)C(Nc1ccccc1)c1ccccc1` (racemic), the CC50 at 48 h in data set [1] stood at 12.5 µM. The IC50 in data set [2] (read-out: IC50) and in data set [2] (read-out: pIC50 (converted)) was 13.5 µM each time. The “Ratio CC50/IC50” value in data set [3] is on record as 0.93.

On to `COP(=O)(OC)C(Nc1ccccc1)C1CCCCC1` (racemic), for which, in data set [1], the CC50 at 48 h stood at 14 µM. Also, the IC50 in data set [2] (read-out: IC50) is over 100 µM.

Compound `COP(=O)(OC)C(Nc1ccccc1)c1ccc(N(C)C)cc1` (racemic) came in with a CC50 at 48 h in data set [1] of 5 µM. In addition, the IC50 in data set [2] (read-out: IC50) was over 100 µM.

Take `COP(=O)(OC)C(Nc1ccccc1)c1cccc(O)c1` (racemic): the cytotoxic concentration (CC50) at 48 h in data set [1] was over 100 µM. The IC50 in data set [2] (read-out: IC50) is over 100 µM.

As for `COc1ccc(C(Nc2cc(C)on2)P(=O)(OC)OC)cc1` (racemic), the midpoint of cytotoxicity in data set [1], the CC50 at 48 h, lay at 7.5 µM. In addition, the IC50 was 8 µM in data set [2] (read-out: IC50) and 7.94 µM in data set [2] (read-out: pIC50 (converted)). In data set [3], the “Ratio CC50/IC50” value is recorded as 0.94.

In turn, `COc1ccc(C(Nc2nc3c(C)cccc3s2)P(=O)(OC)OC)cc1` (racemic) showed a CC50 at 48 h in data set [1] of 8.5 µM. Besides, the values for the IC50 in data set [2] (read-out: IC50) and in data set [2] (read-out: pIC50 (converted)) were 8.75 µM and 8.71 µM, respectively. Further, the “Ratio CC50/IC50” value in data set [3] was determined as 0.97.

In data set [1], `COP(=O)(OC)C(Nc1ccccc1)c1ccc([N+](=O)[O-])cc1` (racemic) gave a CC50 at 48 h of 5 µM. For the same compound, the IC50 in data set [2] (read-out: IC50) was 8.95 µM; in data set [2] (read-out: pIC50 (converted)) it was 8.91 µM. In addition, the “Ratio CC50/IC50” value in data set [3] was 0.56.

In data set [1], `COP(=O)(OC)C(Nc1ccccc1)c1ccccc1O` (racemic) returned a CC50 at 48 h of 5 µM. Besides, the IC50 was 8.95 µM in data set [2] (read-out: IC50) and 8.91 µM in data set [2] (read-out: pIC50 (converted)). The “Ratio CC50/IC50” value in data set [3] is reported as 0.56.

Consider `COc1ccc(C(Nc2ccccc2)P(=O)(OC)OC)cc1O` (racemic), for which the midpoint of cytotoxicity in data set [1], the CC50 at 48 h, lay at 31 µM. In addition, the IC50 was 9.75 µM in data set [2] (read-out: IC50) and 9.77 µM in data set [2] (read-out: pIC50 (converted)). In data set [3], the “Ratio CC50/IC50” value was 3.18.

In data set [1], `COP(=O)(OC)C(C)(Nc1ccccc1)c1ccccc1` (racemic) registered a CC50 at 48 h of 6 µM. Also, the IC50 in data set [2] (read-out: IC50) and in data set [2] (read-out: pIC50 (converted)) was 13.5 µM each time. For the same compound, the “Ratio CC50/IC50” value in data set [3] is 0.44.

On to `COc1cc(C(Nc2ccccc2)P(=O)(OC)OC)cc(OC)c1O` (racemic), for which the cytotoxic concentration (CC50) at 48 h in data set [1] was 10 µM. The IC50 in data set [2] (read-out: IC50) and in data set [2] (read-out: pIC50 (converted)) was 13.5 µM throughout. Moreover, the “Ratio CC50/IC50” value in data set [3] is 0.74.

The compound `COP(=O)(OC)C(/C=C/c1ccccc1)Nc1ccccc1` (racemic) gave a CC50 at 48 h in data set [1] of 8 µM. In addition, the IC50 was 17.5 µM in data set [2] (read-out: IC50) and 17.4 µM in data set [2] (read-out: pIC50 (converted)). Besides, the “Ratio CC50/IC50” value in data set [3] is reported as 0.46.

In turn, `COc1ccccc1C(Nc1ccccc1)P(=O)(OC)OC` (racemic) returned a CC50 at 48 h in data set [1] of 6 µM. For the same compound, the IC50 is 18 µM in data set [2] (read-out: IC50) and 18.2 µM in data set [2] (read-out: pIC50 (converted)). The “Ratio CC50/IC50” value in data set [3] came to 0.33.

Regarding `COc1ccc(C(Nc2nc3c(Cl)cccc3s2)P(=O)(OC)OC)cc1` (racemic), the IC50 is 22 µM in data set [2] (read-out: IC50) and 21.9 µM in data set [2] (read-out: pIC50 (converted)).

In turn, `COP(=O)(OC)C(Nc1ccccc1)c1ccccc1Br` (racemic) came in with a CC50 at 48 h in data set [1] of 5.5 µM. Also, the IC50 in data set [2] (read-out: IC50) is 22.5 µM; in data set [2] (read-out: pIC50 (converted)), 22.4 µM. The “Ratio CC50/IC50” value in data set [3] came out at 0.24.

For `COP(=O)(OC)C(Nc1ccccc1)c1ccccc1F` (racemic), half-maximal cytotoxicity in data set [1] (CC50 at 48 h) was put at 12 µM. In addition, the IC50 in data set [2] (read-out: IC50) and in data set [2] (read-out: pIC50 (converted)) was 24 µM throughout. In addition, the “Ratio CC50/IC50” value in data set [3] turned out to be 0.5.

As to `COc1ccc(C(Nc2ccccc2)P(=O)(OC)OC)cc1` (racemic), in data set [1], the CC50 at 48 h came out at 5.5 µM. The IC50 in data set [2] (read-out: IC50) is 25 µM; in data set [2] (read-out: pIC50 (converted)), 25.1 µM. Besides, the “Ratio CC50/IC50” value in data set [3] was 0.22.

In the case of `COP(=O)(OC)C(Nc1cc(C)on1)c1ccccc1` (racemic), the results for the IC50 in data set [2] (read-out: IC50) and in data set [2] (read-out: pIC50 (converted)) were 30 µM and 30.2 µM, respectively.

For the compound `COP(=O)(OC)C(Nc1ccccc1)c1ccc(Cl)cc1` (racemic), the CC50 at 48 h in data set [1] was found to be 39 µM. In addition, the IC50 is 36 µM in data set [2] (read-out: IC50) and 36.3 µM in data set [2] (read-out: pIC50 (converted)). Moreover, in data set [3], the “Ratio CC50/IC50” value was found to be 1.08.

For the compound `COP(=O)(OC)C(Nc1ccccc1)c1ccc(Br)cc1` (racemic), in data set [1], the midpoint of cytotoxicity, the CC50 at 48 h, lay at 6.5 µM. Also, the IC50 is 39 µM in data set [2] (read-out: IC50) and 38.9 µM in data set [2] (read-out: pIC50 (converted)). In addition, the “Ratio CC50/IC50” value in data set [3] is 0.17.

Consider `COP(=O)(OC)C(Nc1ccccc1)c1cccc2ccccc12` (racemic), for which, in data set [1], the CC50 at 48 h is over 100 µM. Moreover, the IC50 in data set [2] (read-out: IC50) was 56 µM; in data set [2] (read-out: pIC50 (converted)), 56.2 µM.

Compound `COP(=O)(OC)C(Nc1ccccc1)c1ccccn1` (racemic) had a CC50 at 48 h in data set [1] of 5 µM. Further, the IC50 is 90 µM in data set [2] (read-out: IC50) and 89.1 µM in data set [2] (read-out: pIC50 (converted)). The “Ratio CC50/IC50” value in data set [3] is reported as 0.06.

The compound `COP(=O)(OC)C(Nc1ccccc1)c1ccc2ccccc2c1` (racemic) displayed a CC50 at 48 h in data set [1] of 6.1 µM. For the same compound, the figures for the IC50 in data set [2] (read-out: IC50) and in data set [2] (read-out: pIC50 (converted)) were 91.5 µM and 91.2 µM, respectively. Further, the “Ratio CC50/IC50” value in data set [3] stood at 0.07.

Take `COc1cc(C(Nc2ccccc2)P(=O)(OC)OC)ccc1O` (racemic): the midpoint of cytotoxicity in data set [1], the CC50 at 48 h, lay at 5 µM. For the same compound, the IC50 in data set [2] (read-out: IC50) is 7.1 µM; in data set [2] (read-out: pIC50 (converted)), 7.08 µM. Also, the “Ratio CC50/IC50” value in data set [3] turned out to be 0.7.

`COP(=O)(OC)C(Nc1ccccc1)c1ccc(O)cc1` (racemic) came in with a CC50 at 48 h in data set [1] of 6.5 µM. Further, the IC50 in data set [2] (read-out: IC50) was 8 µM; in data set [2] (read-out: pIC50 (converted)), 7.94 µM. Further, the “Ratio CC50/IC50” value in data set [3] is on record as 0.81.

Take `C[C@@H]1[C@H](O)[C@@H](C)/C=C/C=C/C=C/C=C/C=C/C=C/C=C/[C@H](O[C@@H]2O[C@H](C)[C@@H](O)[C@H](N)[C@@H]2O)C[C@@H]2O[C@](O)(C[C@@H](O)C[C@@H](O)[C@H](O)CC[C@@H](O)C[C@@H](O)CC(=O)O[C@H]1C)C[C@H](O)[C@H]2C(=O)O` [AMPHOTERICIN B]: in data set [1], the CC50 at 48 h was found to be 7 µM. In addition, the IC50 in data set [2] (read-out: IC50) turned out to be 0.405 µM. For the same compound, the “Ratio CC50/IC50” value in data set [3] is 17.28.

In turn, `CCCCCCCCCCCCCCCCOP(=O)([O-])OCC[N+](C)(C)C` [MILTEFOSINE] gave a half-life in data set [4] of 144 h.
